Assay results reported in PubChem BioAssay (NCI).
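The compound was tested at five concentrations on cells cultured in 96-well plates, with a 48-hour exposure period. The concentration for 50% growth inhibition is given as GI50. TGI is the concentration that stops growth completely.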

What was measured:
Test in all cases: NCI-60 cell line screen, 48 h
[1] = system: HOP-62 NSCLC
[2] = system: OVCAR-5 ovarian
[3] = system: NCI-H226 lung
[4] = system: MCF7 breast
[5] = system: CCRF-CEM leukemia
[6] = system: HT29 colon
[7] = system: MOLT-4 leukemia
[8] = system: SW-620 colon
[9] = system: HL-60(TB) leukemia
[10] = system: T-47D breast

Row | Compound | GI50 [1] | TGI [1] | GI50 [2] | TGI [2] | GI50 [3] | TGI [3] | GI50 [4] | TGI [4] | GI50 [5] | TGI [5] | GI50 [6] | TGI [6] | GI50 [7] | TGI [7] | GI50 [8] | TGI [8] | GI50 [9] | TGI [9] | GI50 [10] | TGI [10]
1 | CN(C)c1ccc(C(O)C2=CC(=O)c3ccccc3C2=O)cc1 (stereo not given) | 23.1 µM | 64.7 µM | 22.4 µM | 52.4 µM | 3.01 µM | 14.2 µM | 4.7 µM | > 100 µM | – | – | – | – | – | – | – | – | – | – | – | –
2 | CC(C)OP(=O)(O)c1ncc(-c2ccc(C(F)(F)F)cc2)c(NC2CCCCCC2)n1 | 81.2 µM | > 100 µM | > 100 µM | > 100 µM | > 100 µM | > 100 µM | > 100 µM | > 100 µM | > 100 µM | > 100 µM | > 100 µM | > 100 µM | > 100 µM | > 100 µM | > 100 µM | > 100 µM | 38.2 µM | > 100 µM | 34.9 µM | > 100 µM
3 | CCOC1Oc2ccc(C)cc2C(=O)/C1=C\Nc1ccc(S(N)(=O)=O)cc1 (stereo not given) | 11 µM | 35.1 µM | 0.0219 µM | 14.1 µM | 22.3 µM | > 50 µM | 15.9 µM | > 50 µM | – | – | 15.6 µM | > 50 µM | 13.9 µM | > 50 µM | 15.3 µM | > 50 µM | 9.48 µM | 27.4 µM | – | –
4 | CCN(c1ccccc1)[C@H]1C(=O)N(c2ccc([N+](=O)[O-])cc2)[C@H]1c1ccc(OC)cc1 | – | – | – | > 100 µM | – | > 100 µM | – | – | – | > 100 µM | – | > 100 µM | – | > 100 µM | – | > 100 µM | – | > 100 µM | – | –
5 | COCC(C(=O)OC1C/C=C/C=C/C(=O)OC(C(C)C(O)C(C)CCC(OC(=O)C(C)N(C)C)C(C)C(OC(C)=O)C(C)/C=C/N(C)C=O)C/C=C/C(OC)CC(C)C/C=C(\C)C(OC)CCC(C)C(O)C1C)N(C)C (stereo not given) | < 0.0001 µM | 0.0013 µM | < 0.0001 µM | 0.162 µM | – | – | < 0.0001 µM | 0.06 µM | < 0.0001 µM | 0.0139 µM | – | – | < 0.0001 µM | > 0.201 µM | < 0.0001 µM | > 1 µM | < 0.0001 µM | < 0.0001 µM | 0.0479 µM | > 1 µM
6 | COc1ccc(C)cc1NC(=S)C#N | – | > 100 µM | – | > 100 µM | – | > 100 µM | – | > 100 µM | – | > 100 µM | – | > 100 µM | – | – | – | > 100 µM | – | > 100 µM | – | > 100 µM
7 | COc1ccc(-c2csc(Nc3cccc(-c4csc(C)n4)c3)n2)cc1 | 2.81 µM | > 33.8 µM | 3.45 µM | 48.6 µM | 6.12 µM | 19.7 µM | 0.31 µM | > 50 µM | – | – | 2.57 µM | > 50 µM | 0.287 µM | 7.11 µM | 0.441 µM | > 50 µM | 0.138 µM | 3.88 µM | 11.5 µM | > 50 µM
8 | COc1ccc(C2=Nn3c(nnc3-n3nc(C)cc3C)SC2)cc1 | 0.0839 µM | > 100 µM | 0.34 µM | > 100 µM | – | > 100 µM | 0.0642 µM | > 100 µM | 0.038 µM | > 100 µM | 0.0401 µM | – | 0.116 µM | > 100 µM | 0.0423 µM | > 100 µM | 0.0358 µM | 0.482 µM | – | –
